Reference: patent US20210221777A1, “NOVEL COMPOUNDS RELATED TO MY[…] METHODS OF TREATING CANCER” (priority 2020, published 2021)
Where two headings read alike, the source gives them in different places.

Tests used:
[1] = Shelf life / preservation studies (1H NMR)
From the text: Our final approach reinvestigating 1 involved exploring the relevance of the C(8)-OH stereocenter and labile C-14/C-19 diene system for their SAR significance related to the cytotoxicity of 1 against tumor cell lines.

[2] = tested on: hypoxia-induced factor (HIF-1) signaling in T47D breast tumor cells; conditions: cited from earlier work; for IC50: hypoxia-induced, read-out: IC50 against HIF-1 signaling
[3] = tested on: pancreatic (PANC-1) tumor cell lines; assay: Cytotoxicity vs. PANC-1 tumor cell line
[4] = tested on: pancreatic (PANC-1), liver (HepG2), and colon (HCT-116) tumor cell lines; assay: Cytotoxicity of fresh 1, summary over PANC-1, HepG2 and HCT-116; format: cell-based
[5] = Sample storage degradation experiments a-e followed by LCMS; format: physicochemical; conditions: 24 hrs
From the text: Recent work in our laboratory using HPLC during the scale up isolation of mycothiazole (1) hinted that mycothiazole-4,19-diol (7)^6 may also be an artifact of isolation encountered during routine purification of degraded 1. To test this hypothesis, we subjected freshly purified 1 to a variety of sample storage experimental conditions (a-e) summarized in Table 2. Analytical (LCMS) data was used to determine purity outcomes of 1 in terms of its observed degradation which is summarized at the bottom of Table 2 and in FIG. 2. […] Furthermore, the diagnostic MS m/z ion peak (439, [M+H]^+)^6 characteristic of 7 was also observed in samples b-c and e, but not in a or d, as shown in FIG. 2. Selected examples included molecular ion peaks of 421 m/z and 437 m/z. We were unable to pursue full or even partial structure elucidation of these components or the observed 439 m/z ion peak, using NMR studies, due to insufficient material.

[6] = tested on: colon (HCT-116) tumor cell line; conditions: literature value, may be inaccurate due to compound degradation, read-out: HCT 116 IC50 (Sashidhara et al., 2009); cited from earlier work
[7] = tested on: human colon tumor (HCT-15) cell lines; conditions: Manta et al., read-out: GI50 against HCT-15; cited from earlier work
[8] = tested on: solid tumor cell lines; conditions: read-out: cytotoxicity IC50 against a wide variety of solid tumor cell lines; range over literature cell lines; cited from earlier work
[9] = tested on: colon (HCT-116) tumor cell line; assay: Cytotoxicity vs. HCT 116 tumor cell line; format: cell-based; conditions: this work, ± SEM, N = 2
[10] = read-out: PANC-1 IC50, PANC-1, this work, ± SEM, N = 2
[11] = a) standard protocol: amber vial, Argon, dark desiccator under vacuum
[12] = b) MeOH-O2 (air stream), amber vial, room temp. 22° C.
[13] = c) MeOH-N2 (N2 stream), amber vial, room temp. 22° C.
[14] = d) refrigeration 4° C., amber vial, Argon
[15] = e) direct light (hv), clear vial, 24° C.

For “8-O-acetyl-mycothiazole [8-O-acetyl-mycothiazole (2)]”, the “time stable in preservation studies using 1H NMR” value ([1]; stored by standard storage protocol (Table 2a), more stable than 1) is given as ≥ 6 months, the IC50 [2] is given as ~1 nM and the IC50 [3, 10] is given as 1.3 nM.

In the case of `C=CC/C=C\Cc1csc(C(C)(C)[C@H](O)C/C=C\C(=C)CCNC(=O)OC)n1` [mycothiazole (1), mycothiazole], the “increase in potency of fresh 1 versus earlier data” value ([4]; PANC-1, HepG2, HCT-116) is reported as “tenfold increase”, the IC50 ([4]; range over PANC-1, HepG2, HCT-116, read-out: IC50 of fresh 1 across three tumor cell lines) is reported as 0.16 to 0.36 nM and the “analytical LCMS data UV-PDA maximum absorbance units of 1” value [5, 11] is reported as 500000 AU. For the same molecule, the “purity outcomes of 1 involving its degradation” value (“purity outcomes” for short) [5, 11] was “minimal degradation”, the “MS-TIC of visible impurity peaks” value [5, 12] was ~45% relative % relative abundance of m/z io and the “analytical LCMS data UV-PDA maximum absorbance units of 1” value [5, 12] was 500000 AU. The “purity outcomes” value [5, 12] was “partial degradation”, the “MS-TIC of visible impurity peaks” value [5, 13] was ~45% relative % relative abundance of m/z io and the “analytical LCMS data UV-PDA maximum absorbance units of 1” value [5, 13] was 500000 AU. For the same molecule, the “purity outcomes” value [5, 13] was “partial degradation”, the “MS-TIC of visible impurity peaks” value [5, 14] was ~20% relative % relative abundance of m/z io and the “analytical LCMS data UV-PDA maximum absorbance units of 1” value [5, 14] was 500000 AU. For the same molecule, the “purity outcomes” value [5, 14] was “minimal degradation”, the “MS-TIC of visible impurity peaks” value [5, 15] was ~60% relative % relative abundance of m/z io and the “analytical LCMS data UV-PDA maximum absorbance units of 1” value [5, 15] was 280000 AU. For the same molecule, the “purity outcomes” value [5, 15] was “severe degradation”, the shelf life ([1]; pure 1, storage protocols a or d of Table 2) was 3-6 weeks and the stability on storage ([1]; stored at 4° C.) was “unstable”. The IC50 [6] was 3.8 ± 0.24 nM, the GI50 [7] was 44000 nM and the IC50 [2] was ~1 nM. For the same molecule, the IC50 [8] was 0.36 to 13.8 nM and the IC50 ([3]; Homo sapiens, PANC-1, read-out: PANC-1 IC50) was 0.16 nM.

In the case of `C=CC/C=C\Cc1csc(C(C)(C)[C@H](O)C/C=C/C(O)(CO)CCNC(=O)OC)n1` (stereo partly drawn) [mycothiazole-4,19-diol (7), mycothiazole-4,19-diol, reference compound], the IC50 [9] is given as > 1000 nM and the “times less potent than 1 or 2 at suppression of hypoxia-induced HIF-1 activation” value [2] is given as “at least 1000 times”.

For `C=CC/C=C\Cc1csc(C(C)(C)C(=O)C/C=C\C(=C)CCNC(=O)OC)n1` [8-Oxo-mycothiazole (8), 8-oxo-mycothiazole], the “fold less potent than 1 (cytotoxicity)” value ([3]; PANC-1, relative to 1) was 10,000 times and the IC50 [3, 10] was 2000 nM.
